Test results as given in patent US9079919B2 (HOFFMANN-LA ROCHE INC., priority 2011, dated 2015).

Columns and labels:
Assay type in all cases: cell-based
[1] = biological target: T1, BACE1 (Homo sapiens, UniProt P56817); assay: Cellular Aβ-lowering assay a) (Aβ40 ELISA); details: cellular assay a): HEK293 cells expressing human APP695, Aβ40 in supernatant by ELISA after 18-20 hrs; read-out: BACE1 cell act. Aβ40 IC50
T1 construct: Human HEK293 cells which are stably transfected with a vector expressing a cDNA of the human APP wt gene (APP695); endogenous in cells; host or cells: HEK293 cells stably transfected with human APP695 (wt)
T1 sequence (P56817 46-501): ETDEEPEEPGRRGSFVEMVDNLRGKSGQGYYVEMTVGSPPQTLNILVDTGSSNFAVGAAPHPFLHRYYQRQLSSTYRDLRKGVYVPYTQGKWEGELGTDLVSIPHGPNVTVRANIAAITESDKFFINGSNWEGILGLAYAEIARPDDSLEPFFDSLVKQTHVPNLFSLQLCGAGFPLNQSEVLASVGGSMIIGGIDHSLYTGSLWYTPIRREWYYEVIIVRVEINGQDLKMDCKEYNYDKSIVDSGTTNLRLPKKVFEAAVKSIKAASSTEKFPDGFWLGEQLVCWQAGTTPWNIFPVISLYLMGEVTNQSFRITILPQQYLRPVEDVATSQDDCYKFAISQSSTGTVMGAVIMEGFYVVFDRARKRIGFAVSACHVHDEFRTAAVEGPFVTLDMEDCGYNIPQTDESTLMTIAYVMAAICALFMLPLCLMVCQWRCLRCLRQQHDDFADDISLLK
Procedure: a) Human HEK293 cells which are stably transfected with a vector expressing a cDNA of the human APP wt gene (APP695) were used to assess the potency of the compounds in a cellular assay. The cells were seeded in 96-well microtiter plates in cell culture medium (Iscove, plus 10% (v/v) fetal bovine serum, glutamine, penicillin/streptomycin) to about 80% confluence and the compounds were added at a 10× concentration in 1/10 volume of medium without FCS containing 8% DMSO (final concentration of DMSO was kept at 0.8% v/v). After 18-20 hrs incubation at 37° C. and 5% CO2 in a humidified incubator the culture supernatant was harvested for the determination of Aβ40 concentrations. 96 well ELISA plates (e.g., Nunc MaxiSorb) were coated with monoclonal antibody which specifically recognize the C-terminal end of Aβ40 (Brockhaus et al., NeuroReport 9, 1481-1486; 1998). After blocking of non-specific binding sites with e.g. 1% BSA and washing, the culture supernatants were added in suitable dilutions together with a horseradish peroxidase-coupled Aβ detection antibody (e.g., antibody 4G8, Senetek, Maryland Heights, Mo.) and incubated for 5 to 7 hrs. Subsequently the wells of the microtiter plate were washed extensively with Tris-buffered saline containing 0.05% Tween 20 and the assay was developed with tetramethylbenzidine/H2O2 in citric acid buffer. After stopping the reaction with one volume of 1N H2SO4 the reaction was measured in an ELISA reader at 450 nm wavelength. The concentrations of Aβ in the culture supernatants were calculated from a standard curve obtained with known amounts of pure Aβ peptide.

[2] = biological target: T2, BACE2 (Rattus norvegicus, UniProt Q6IE75); assay: Assay for BACE inhibition by measuring cellular TMEM27 cleavage; details: INS-TMEM27 cells (INS1e-derived), shed human TMEM27 by ELISA; read-out: BACE2 cell act. IC50
T2 construct: endogenous cellular BACE2 in the Ins1e rat cell line; endogenous in cells; host or cells: INS-TMEM27 (INS1e-derived rat cell line with doxycycline-inducible full-length human TMEM27)
T2 sequence (Q6IE75 63-514): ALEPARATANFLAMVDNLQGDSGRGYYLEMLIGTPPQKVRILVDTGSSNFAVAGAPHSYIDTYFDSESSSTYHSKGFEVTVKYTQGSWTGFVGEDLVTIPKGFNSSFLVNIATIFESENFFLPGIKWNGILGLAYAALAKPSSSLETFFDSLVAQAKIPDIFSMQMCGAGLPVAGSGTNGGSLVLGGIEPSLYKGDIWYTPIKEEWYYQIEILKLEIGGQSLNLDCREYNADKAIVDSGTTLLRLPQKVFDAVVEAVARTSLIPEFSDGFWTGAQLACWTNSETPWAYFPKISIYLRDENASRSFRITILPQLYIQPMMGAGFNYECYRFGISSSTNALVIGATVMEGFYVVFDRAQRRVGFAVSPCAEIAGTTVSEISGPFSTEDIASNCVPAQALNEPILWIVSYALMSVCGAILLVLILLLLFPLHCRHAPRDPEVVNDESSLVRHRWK
Excerpt: The assay uses the principle of inhibition of human TMEM27 cleavage by endogenous cellular BACE2 in the Ins1e rat cell line and shedding from the cell surface into the culture medium, followed by detection in an ELISA assay. Inhibition of BACE2 prevents the cleavage and shedding in a dose-dependent manner.
The stable cell line “INS-TMEM27” represents an INS1e-derived cell line with inducible expression (using the TetOn system) of full-length hTMEM27 in a doxycycline-dependent manner. The cells are cultured throughout the experiment in RPMI1640+ Glutamax (Invitrogen) Penicillin/Streptomycin, 10% Fetal bovine serum, […], […], 100 micrograms/ml G418 and 100 microgram/ml hygromycin and are grown inadherent culture at 37° C. in a standard CO2 cell culture incubator.
INS-TMEM27 cells are seeded in 96-well plates. After 2 days in culture, BACE2 inhibitor is added in a range of concentrations as required by the assay and after a further two hours, doxycycline is added to a final concentration of 500 ng/ml. The cells are incubated for a further 46 hours and the supernatant harvested for detection of shed TMEM27.
An ELISA assay (using a pair of mouse anti-human-TMEM27 antibodies, raised against the extracellular domain of TMEM27) is used for detection of TMEM27 in the culture medium. An EC50 for BACE2 inhibition is calculated using the ELISA readout for each inhibitor concentration with standard curve-fitting software such as XLFit for the Excel spreadsheet program.

[3] = biological target: T1, BACE1; assay: Cellular Aβ-lowering assay b) (Abeta 40 AlphaLISA Assay); details: cellular assay b): HEK293 APP cells, Aβ40 in supernatant by AlphaLISA after 18-20 hrs; read-out: BACE1 cell act. Aβ40 IC50
Procedure: b) Alternatively, the Abeta 40 AlphaLISA Assay can be used. The HEK293 APP cells were seeded in 96 well Microtiter plates in cell culture medium (Iscove's, plus 10% (v/v) fetal bovine serum, penicillin/streptomycin) to about 80% confluency and the compounds were added at a 3× concentration in 1/3 volume of culture medium (final DMSO concentration was kept at 1% v/v). After 18-20 hrs incubation at 37° C. and 5% CO2 in a humidified incubator, the culture supernatants were harvested for the determination of Aβ 40 concentrations using Perkin-Elmer Human Amyloid beta 1-40 (high specificity) Kit (Cat#AL275C).
In a Perkin-Elmer White Optiplate-384 (Cat#6007290), 2 ul culture supernatants were combined with 2 μl of a 10× AlphaLISA Anti-hAβ Acceptor beads+Biotinylated Antibody Anti-Aβ 1-40 Mix (50 μg/mL/5 nM). After 1 hour room temperature incubation, 16 μl of a 1.25× preparation of Streptavidin (SA) Donor beads (25 μg/mL) were added and incubated for 30 minutes in the Dark. Light Emission at 615 nm was then recorded using EnVision-Alpha Reader. Levels of Aβ 40 in the culture supernatants were calculated as percentage of maximum signal (cells treated with 1% DMSO without inhibitor). The IC50 values were calculated using the Excel XLfit software.

SMILES | IC50 [1] [nM] | IC50 [2] [nM] | IC50 [3] [nM]
NC1=N[C@@]2(CCCc3ccc(-c4cncc(Cl)c4)cc32)C(F)(F)CO1 [Example 1, (R)-7-(5-Chloropyridin-3-yl)-5′,5′-difluoro-3,4,5′,6′-tetrahydro-2H-spiro[naphthalene-1,4′-[1,3]oxazin]-2′-amine] | 100 | 543 | 
N#Cc1cncc(-c2ccc3c(c2)[C@@]2(CCC3)N=C(N)OCC2(F)F)c1 [Example 2, (R)-5-(2′-Amino-5′,5′-difluoro-3,4,5′,6′-tetrahydro-2H-spiro[naphthalene-1,4′-[1,3]oxazine]-7-yl)nicotinonitrile] | 80 | 526 | 
NC1=N[C@@]2(CCc3ccc(-c4cc(Cl)cc(Cl)c4)cc32)C(F)(F)CO1 [Example 8, (R)-6-(3,5-Dichlorophenyl)-5′,5′-difluoro-2,3,5′,6′-tetrahydrospiro[indene-1,4′-[1,3]oxazin]-2′-amine] | 2450 | 2730 | 
NC1=N[C@@]2(CCc3ccc(-c4cncc(Cl)c4)cc32)C(F)(F)CO1 [Example 9, (R)-6-(5-Chloropyridin-3-yl)-5′,5′-difluoro-2,3,5′,6′-tetrahydrospiro[indene-1,4′-[1,3]oxazin]-2′-amine] | 790 | 3580 | 
N#Cc1cncc(-c2ccc3c(c2)[C@@]2(CC3)N=C(N)OCC2(F)F)c1 [Example 11, (R)-5-(2′-Amino-5′,5′-difluoro-2,3,5′,6′-tetrahydrospiro[indene-1,4′-[1,3]oxazine]-6-yl)nicotinonitrile] |  |  | 3380
N#Cc1ccc(C(=O)Nc2ccc3c(c2)[C@@]2(CCC3)N=C(N)OCC2(F)F)nc1 [Example 13, (R)—N-(2′-Amino-5′,5′-difluoro-3,4,5′,6′-tetrahydro-2H-spiro[naphthalene-1,4′-[1,3]oxazine]-7-yl)-5-cyanopicolinamide] | 5 | 116 | 
CC1(C)CC[C@@]2(N=C(N)OCC2(F)F)c2cc(NC(=O)c3ccc(C#N)cn3)ccc21 [Example 14, (R)—N-(2′-Amino-5′,5′-difluoro-4,4-dimethyl-3,4,5′,6′-tetrahydro-2H-spiro[naphthalene-1,4′-[1,3]oxazine]-7-yl)-5-cyanopicolinamide] | 1110 | 13000 | 
NC1=N[C@@]2(CCOc3ccc(-c4cncc(Cl)c4)cc32)C(F)(F)CO1 [Example 19, (R)-6-(5-Chloropyridin-3-yl)-5′,5′-difluoro-5′,6′-dihydrospiro[chroman-4,4′-[1,3]oxazin]-2′-amine] | 380 | 124 | 
NC1=N[C@@]2(CCOc3ccc(-c4cc(Cl)cc(Cl)c4)cc32)C(F)(F)CO1 [Example 20, (R)-6-(3,5-dichlorophenyl)-5′,5′-difluoro-5′,6′-dihydrospiro[chroman-4,4′-[1,3]oxazin]-2′-amine] | 2020 | 3990 | 
COc1cncc(-c2ccc3c(c2)[C@@]2(CCO3)N=C(N)OCC2(F)F)c1 [Example 22, (R)-5′,5′-difluoro-6-(5-methoxypyridin-3-yl)-5′,6′-dihydrospiro[chroman-4,4′-[1,3]oxazin]-2′-amine] | 2780 | 926 | 
NC1=N[C@@]2(CCSc3ccc(-c4cncc(Cl)c4)cc32)C(F)(F)CO1 [Example 32, (R)-6′-(5-Chloropyridin-3-yl)-5,5-difluoro-5,6-dihydrospiro[[1,3]oxazine-4,4′-thiochroman]-2-amine] | 676 | 1950 | 
NC1=N[C@@]2(CCOc3ccc(NC(=O)c4ccc(Cl)cn4)cc32)C(F)(F)CO1 [Example 33, (R)—N-(2′-Amino-5′,5′-difluoro-5′,6′-dihydrospiro[chroman-4,4′-[1,3]oxazine]-6-yl)-5-chloropicolinamide] | 360 | 986 | 
N#Cc1ccc(C(=O)Nc2ccc3c(c2)[C@@]2(CCO3)N=C(N)OCC2(F)F)nc1 [Example 34, (R)—N-(2′-Amino-5′,5′-difluoro-5′,6′-dihydrospiro[chroman-4,4′-[1,3]oxazine]-6-yl)-5-cyanopicolinamide] | 80 | 1920 | 
NC1=N[C@@]2(CCSc3ccc(NC(=O)c4ccc(Cl)cn4)cc32)C(F)(F)CO1 [Example 42, (R)—N-(2-Amino-5,5-difluoro-5,6-dihydrospiro[[1,3]oxazine-4,4′-thiochroman]-6′-yl)-5-chloropicolinamide] | 35 | 438 | 
N#Cc1ccc(C(=O)Nc2ccc3c(c2)[C@@]2(CCS3)N=C(N)OCC2(F)F)nc1 [Example 43, (R)—N-(2-Amino-5,5-difluoro-5,6-dihydrospiro[[1,3]oxazine-4,4′-thiochroman]-6′-yl)-5-cyanopicolinamide] | 10 | 148 | 
NC1=N[C@@]2(CCOc3ccc(NC(=O)c4ccc(Cl)cn4)cc32)C(F)(F)COC1 [Example 50, (R)—N-(3′-Amino-6′,6′-difluoro-6′,7′-dihydro-2′H-spiro[chroman-4,5′-[1,4]oxazepine]-6-yl)-5-chloropicolinamide] | 2130 |  | 
NC1=N[C@@]2(CCOc3ccc(NC(=O)c4ncc(Cl)cc4Cl)cc32)C(F)(F)COC1 [Example 51, (R)—N-(3′-Amino-6′,6′-difluoro-6′,7′-dihydro-2′H-spiro[chroman-4,5′-[1,4]oxazepine]-6-yl)-3,5-dichloropicolinamido] | 1690 | 5870 | 
NC1=N[C@@]2(CCOc3ccc(-c4cncc(Cl)c4)cc32)C(F)(F)COC1 [Example 54, (R)-6-(5-Chloropyridin-3-yl)-6′,6′-difluoro-6′,7′-dihydro-2′H-spiro[chroman-4,5′-[1,4]oxazepin]-3′-amine] | 1160 |  | 
NC1=N[C@@]2(CCOc3ccc(-c4cc(Cl)cc(Cl)c4)cc32)C(F)(F)COC1 [Example 55, (R)-6-(3,5-Dichlorophenyl)-6′,6′-difluoro-6′,7′-dihydro-2′H-spiro[chroman-4,5′-[1,4]oxazepin]-3′-amine] | 3830 | 10500 | 
